Consider 21 compounds from ChEMBL document CHEMBL4270567, “Multi-target-directed ligands for treating Alzheimer's disease: Butyrylcholinesterase inhibitors displaying antioxidant and neuroprotective activities” (Eur J Med Chem, 2018).

By IC50 is commonly meant the concentration that gives 50% inhibition. What is called Papp A→B is how fast a substance crosses the layer from the apical side. As usually defined, the Papp B→A is the apparent permeability from the basolateral to the apical side of a cell layer. One may read the efflux ratio as the permeability from basolateral to apical divided by that in the opposite direction, in the common usage. A word on the Ki: it is a measure of affinity in units of concentration, obtained from inhibition or displacement.

Each structure is given as a SMILES string. The source made the active and inactive calls. The rule behind the calls is not given here.

In data set [1] the target is T1, Cholinesterase (Homo sapiens, UniProt P06276). In words: Inhibition of human recombinant BChE using butyrylthiocholine as substrate preincubated for 300 secs followed by substrate addition and measured for 1 min by Ellman's assay. For orientation: Ellman's reagent forms a yellow product with free thiols.
Data set [2] in a line: Binding affinity to Cu2+ assessed as decrease in hydroxyl radical formation at 40 uM by CCA ascorbate assay.
The target in data set [3] is Acetylcholinesterase (AChE) (Homo sapiens, UniProt P22303). In words: in vitro. The settings on record: human AChE enzyme, probe acetylthiocholine iodide.
Description: Inhibition of human AChE using acetylthiocholine iodide as substrate assessed as residual activity at 10 uM preincubated for 5 mins followed by substrate addition and measured for 1 min by Ellman's assay relative to control
Data set [4] deals with T1, Cholinesterase.
Description: Inhibition of human BChE using butyrylthiocholine iodide as substrate preincubated for 5 mins followed by substrate addition and measured for 1 min by Ellman's assay
Data set [5] in a line: Permeability across apical to basolateral side in human Caco2 cells at 100 uM after 20 mins by HPLC-UV analysis. In kind it is ADME, cell-based. Particulars: Caco-2.
Data set [6] is described as follows: Metal chelating activity of the compound assessed as Fe2+-compound complex formation at 30 uM after 5 mins by UV-vis spectrophotometric analysis.
Data set [7] is described as follows: Metal chelating activity of the compound assessed as Co2+-compound complex formation at 30 uM after 5 mins by UV-vis spectrophotometric analysis.
Data set [8] is described as follows: Metal chelating activity of the compound assessed as Zn2+-compound complex formation at 30 uM after 5 mins by UV-vis spectrophotometric analysis.
The test system of data set [9] is SH-SY5Y. In words: Inhibition of H2O2-induced ROS generation in human SH-SY5Y cells at 5 uM preincubated for 30 mins followed by H2O2 addition and measured after 90 mins by DCFH-DA staining-based fluorescence assay. In kind it is functional, cell-based.
Data set [10] can be described thus: Metal chelating activity of the compound assessed as Ni2+-compound complex formation at 30 uM after 5 mins by UV-vis spectrophotometric analysis.
For data set [11], the system named is SH-SY5Y. In words: Neuroprotection activity against amyloid beta (1 to 42)-induced toxicity in human SH-SY5Y cells at 1 uM preincubated with amyloid beta (1 to 42) for 24 hrs followed by cell addition and measured after 48 hrs by MTS assay. In kind it is functional, cell-based. (Formazan colour is commonly taken as a measure of viable cells.)
The nature of data set [12]: Permeability across basolateral to apical side in human Caco2 cells at 100 uM after 20 mins by HPLC-UV analysis. In kind it is ADME, cell-based. The settings on record: Caco-2.
Data set [13] can be described thus: Cytotoxicity against human SH-SY5Y cells after 48 hrs by MTS assay. In kind it is cell-based. Particulars: read-out: LD50.
The nature of data set [14]: Metal chelating activity of the compound assessed as Cu2+-compound complex formation at 30 uM after 5 mins by UV-vis spectrophotometric analysis.
A short description of data set [15]: Metal chelating activity of the compound assessed as Mg2+-compound complex formation at 30 uM after 5 mins by UV-vis spectrophotometric analysis.
Data set [16] can be described thus: Metal chelating activity of the compound assessed as Mn2+-compound complex formation at 30 uM after 5 mins by UV-vis spectrophotometric analysis.
A short description of data set [17]: Metal chelating activity of the compound assessed as Ca2+-compound complex formation at 30 uM after 5 mins by UV-vis spectrophotometric analysis.
Data set [18] can be described thus: Metal chelating activity of the compound assessed as Al3+-compound complex formation at 30 uM after 5 mins by UV-vis spectrophotometric analysis.
In another data set the test system is human recombinant BChE. In words: Selectivity index, ratio of LD50 for human SH-SY5Y cells to IC50 for human recombinant BChE. In kind it is toxicity. The settings on record: read-out: Ratio LD50/IC50.
The nature of data set [19]: Efflux ratio of permeability from basolateral to apical over apical to basolateral side in human Caco2 cells at 100 uM after 20 mins by HPLC-UV analysis. In kind it is ADME, cell-based. The settings on record: Caco-2. (Caco-2 cells form a polarised layer with tight junctions and transporters.)
The target in data set [20] is T1, Cholinesterase. In words: Competitive inhibition of human BChE using butyrylthiocholine iodide as substrate preincubated for 5 mins followed by substrate addition and measured for 1 min by Lineweaver Burk plot analysis.

T1 sequence (P06276 whole entry): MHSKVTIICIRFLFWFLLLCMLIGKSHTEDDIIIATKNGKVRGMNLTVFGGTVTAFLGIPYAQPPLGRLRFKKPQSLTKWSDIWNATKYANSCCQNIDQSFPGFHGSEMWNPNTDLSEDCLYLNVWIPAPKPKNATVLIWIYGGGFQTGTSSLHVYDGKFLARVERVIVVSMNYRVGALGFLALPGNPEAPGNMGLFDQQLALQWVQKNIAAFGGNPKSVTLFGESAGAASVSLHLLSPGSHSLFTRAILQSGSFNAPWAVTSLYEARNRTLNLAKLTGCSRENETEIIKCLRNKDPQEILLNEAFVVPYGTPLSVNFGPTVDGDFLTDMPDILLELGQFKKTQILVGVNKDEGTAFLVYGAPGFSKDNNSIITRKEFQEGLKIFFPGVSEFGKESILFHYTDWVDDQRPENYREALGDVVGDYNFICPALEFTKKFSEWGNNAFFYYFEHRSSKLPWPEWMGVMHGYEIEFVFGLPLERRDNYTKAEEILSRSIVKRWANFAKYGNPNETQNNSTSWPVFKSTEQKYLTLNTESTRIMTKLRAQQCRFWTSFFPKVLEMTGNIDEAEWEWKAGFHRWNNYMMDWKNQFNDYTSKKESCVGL
Acetylcholinesterase (AChE), sequence (P22303 whole entry): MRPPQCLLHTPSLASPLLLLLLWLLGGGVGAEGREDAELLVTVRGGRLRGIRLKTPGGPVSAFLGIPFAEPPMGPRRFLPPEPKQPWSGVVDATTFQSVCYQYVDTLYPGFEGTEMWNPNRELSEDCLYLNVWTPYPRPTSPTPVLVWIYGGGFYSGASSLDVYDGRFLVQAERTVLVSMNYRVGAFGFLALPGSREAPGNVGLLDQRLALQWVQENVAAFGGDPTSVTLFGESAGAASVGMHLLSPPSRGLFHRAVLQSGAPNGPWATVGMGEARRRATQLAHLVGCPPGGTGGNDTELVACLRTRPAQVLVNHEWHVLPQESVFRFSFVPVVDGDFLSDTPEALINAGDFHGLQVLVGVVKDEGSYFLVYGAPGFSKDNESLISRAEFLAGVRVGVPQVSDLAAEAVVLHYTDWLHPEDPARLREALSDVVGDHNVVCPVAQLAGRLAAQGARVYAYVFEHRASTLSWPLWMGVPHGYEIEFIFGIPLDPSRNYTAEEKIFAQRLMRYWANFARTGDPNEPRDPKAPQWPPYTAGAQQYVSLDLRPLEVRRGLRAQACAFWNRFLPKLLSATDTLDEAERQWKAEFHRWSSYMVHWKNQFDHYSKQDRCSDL

For the compound `CC(=O)NC1=NN(C(C)=O)C(C)(c2ccccc2)S1` (centres undefined), the IC50 at Cholinesterase [1] was 4.9 nM.
With `Oc1cccc2cccnc12`, in [2], the Activity entry was “Active”.
The compound `CN(C)CCN(CC1CCCN(C2Cc3ccccc3C2)C1)C(=O)[C@@H]1N=C(c2ccccc2O)CS1` (mixture of isomers) showed an activity at 1 min, 10 µM in data set [3] of 72.9%. In addition, the IC50 on Cholinesterase [4] was 229 nM.
In the same order, the values of `CN(C)CCN(CC1CCCN(C2Cc3ccccc3C2)C1)C(=O)c1csc(Nc2ccccn2)n1` (racemic) are above 80% and 635 nM.
The compound `CN(C)CCN(CC1CCCN(Cc2csc(Nc3ccccn3)n2)C1)C(=O)c1ccc2ccccc2c1` (racemic) gave an activity at 1 min, 10 µM in [3] above 80%. In addition, at Cholinesterase [4], inhibition was half-maximal at 103 nM (IC50).
The compound `COCCN(CC1CCCN(C2Cc3ccccc3C2)C1)C(=O)c1ccc2cccnc2c1O` (racemic) returned an activity at 1 min, 10 µM in [3] above 80%. For the same compound, the concentration for half-maximal inhibition (IC50) against Cholinesterase [4] came out at 266 nM.
In the same order, the values of `COc1ccc(C(=O)N(CCN(C)C)CC2CCCN(C3Cc4ccccc4C3)C2)cc1` (racemic) are above 80% and 237 nM.
The matching figures for `Cc1c(C)c2c(c(C)c1O)CCC(C)(C(=O)N(CCN(C)C)CC1CCCN(C3Cc4ccccc4C3)C1)O2` (racemic): above 80% and 6920 nM.
In the same order, the values of `CN(C)CCN(CC1CCCN(C2Cc3ccccc3C2)C1)C(=O)c1cc2ccccc2oc1=O` (racemic) are above 80% and 9.5 nM.
`CN(C)CCN(CC1CCCN(C2Cc3ccccc3C2)C1)C(=O)c1ccc2cccnc2c1O` (racemic) yielded an apparent permeability from apical to basolateral (Papp A→B) at 20 min, 100 µM in data set [5] of 15.1 ×10⁻⁶ cm/s. The compound further gave an activity at 1 min, 10 µM in data set [3] above 80%. Moreover, the Activity entry in data set [6], in [2], in [7], in data set [8], in [10] and in data set [14] was “Active” throughout. Also, the Activity entry in [15], in data set [16], in data set [17] and in [18] was “Active” throughout. The inhibition result in the data set on SH-SY5Y [9] is “Active”. For the same compound, the Activity result with SH-SY5Y [11] was “inactive”. In [12], this compound yielded an apparent permeability from basolateral to apical (Papp B→A) at 20 min, 100 µM of 22.8 ×10⁻⁶ cm/s. In addition, in [13], the CC50 at 48 h turned out to be 9550 nM.
`CN(C)CCN(CC1CCCN(C2Cc3ccccc3C2)C1)C(=O)c1ccc2c([N+](=O)[O-])ccc(O)c2n1` (racemic): the activity at 1 min, 10 µM in data set [3] was above 80%. The compound also yielded an IC50 against Cholinesterase [4] of 1610 nM.
The matching figures for `CN(C)CCN(CC1CCCN(C2Cc3ccccc3C2)C1)C(=O)c1cccc(O)c1` (racemic): above 80% and 2490 nM.
Compound `CN(C)CCN(CC1CCCN(C2Cc3ccccc3C2)C1)C(=O)c1cn2cccc(O)c2n1` (racemic) showed an activity at 1 min, 10 µM in [3] above 80%. On Cholinesterase [4], this compound registered an IC50 of 135 nM.
On to `CN(C)CCN(CC1CCCN(C2Cc3ccccc3C2)C1)C(=O)c1ccc(O)cc1O` (racemic), for which, in data set [3], the activity at 1 min, 10 µM was above 80%. Also, the concentration for half-maximal inhibition (IC50) on Cholinesterase [4] stood at 460 nM.
The matching figures for `CN(C)CCN(CC1CCCN(Cc2ccc3cccc(O)c3n2)C1)C(=O)c1ccc2ccccc2c1` (racemic): above 80% and 48.1 nM.
In the same order, the values of `CN(C)CCN(CC1CCCN(C2Cc3ccccc3C2)C1)C(=O)/C=C/c1ccc(O)cc1` (racemic) are above 80% and 71 nM.
The matching figures for `CN(C)CCN(CC1CCCN(C2Cc3ccccc3C2)C1)C(=O)c1cc([N+](=O)[O-])c2cccnc2c1O` (racemic): above 80% and 28 nM.
Compound `CN(C)CCN(CC1CCCN(C2Cc3ccccc3C2)C1)C(=O)c1cc(O)c2cccc(O)c2n1` (racemic) showed an activity at 1 min, 10 µM in data set [3] above 80%. This compound also displayed a 50% inhibitory concentration (IC50) on Cholinesterase [4] of 19 nM.
`CN(C)CCN(CC1CCCN(C2Cc3ccccc3C2)C1)C(=O)c1ccc(O)nc1` (racemic) yielded an activity at 1 min, 10 µM in [3] above 80%. Also, on Cholinesterase [4], the half-inhibitory concentration (IC50) came to 21000 nM.
Consider `CN(C)CCN(CC1CCCN(C2Cc3ccccc3C2)C1)C(=O)c1ccc2cccc(O)c2n1` (racemic), for which, in [5], the Papp A→B at 20 min, 100 µM stood at 21.5 ×10⁻⁶ cm/s. Besides, the activity at 1 min, 10 µM in [3] came out at 75.8%. The Activity result (in data set [6]; in data set [2]; in data set [7]; in [8]; in data set [10]; in the data set on SH-SY5Y [11]) was “Active” each time. Also, the Activity result in data set [14] and in [18] was “Active” in each case. For the same compound, in the data set with human recombinant BChE, the selectivity ratio is above 700. Moreover, in the data set with SH-SY5Y [9], the inhibition result was “Active”. Moreover, in [19], the efflux ratio at 20 min, 100 µM was 1.6. In addition, in [12], the Papp B→A at 20 min, 100 µM came out at 35.1 ×10⁻⁶ cm/s. Also, in [13], the CC50 at 48 h came to 9700 nM. The IC50 at Cholinesterase [4] turned out to be 11.1 nM. Further, on Cholinesterase [20], the Ki came out at 1.09 nM.
Compound `CN(C)CCN(CC1CCCN(C2Cc3ccccc3C2)C1)C(=O)c1ccc(O)cc1` (racemic) had an activity at 1 min, 10 µM in data set [3] above 80%. Further, the midpoint of inhibition at Cholinesterase [4], the IC50, lay at 1790 nM.
